The nature of data set [1]: Light stability of lacidipine solution in differently coloured polypropylene vessels exposed to daylight. To be noted: daylight 6 to 8 hours. The class given is physicochemical. The protocol: As a representative of the very light-sensitive 1,4-dihydropyridine derivatives, lacidipine is used. By way of the example of lacidipine it is possible to show the influence the absorption spectrum of a polymer, for instance, one based on polypropylene, has on the stability of the 1,4-dihydropyridine derivative.
To carry out the experiment, the lacidipine was dissolved in a solvent. Since dissolved lacidipine is very sensitive to electromagnetic-radiation, it was possible to clearly determine the influence of the polymers examined. The lacidipine solution was filled in differently coloured vessels of polypropylene and exposed to daylight for a defined period of time. The vessels in this context served as models for a coloured film. After the vessels had been exposed to a certain radiation (for a time of 6 to 8 hours), the lacidipine content of the samples was determined. On the basis of the known initial concentration and the detected active substance amounts it was possible to make a statement on the protective action of the polymers used.
The absorption spectrum of lacidipine contains three maxima [238.4 nm; 282.8 nm; 367.4 nm]. These wavelength regions determine the light-sensitivity of the active substance. […] It can thus be concluded that to ensure maximum stability in the present case brown or aluminized polymers should be used.

The conditions of data set [2]: cited from earlier work.

Each structure is given as a SMILES string.

In the case of `CCOC(=O)C1=C(C)NC(C)=C(C(=O)OCC)C1c1ccccc1/C=C/C(=O)OC(C)(C)C` [lacidipine], the “Amount of active substance after irradiation” value in data set [1] (polymer aluminized, lichtundurchlässig) is recorded as 99.36 % of initial amount; in data set [1] (polymer blue, clear, absorption range <325 nm, 500 nm-700 nm), 23.46 % of initial amount; in data set [1] (polymer brown, clear, absorption range <500 nm) it was 98.93 % of initial amount; in data set [1] (polymer green, clear, absorption range <325 nm, >800 nm), 12.40 % of initial amount; in data set [1] (polymer orange, klar, absorption range 550 nm-750 nm), 15.65 % of initial amount; in data set [1] (polymer transparent, clear, absorption range <300 nm), 14.79 % of initial amount. Further, the “Amount of active substance after irradiation” value in data set [1] (polymer transparent, cloudy, absorption range <300 nm) was 21.05 % of initial amount; in data set [1] (polymer yellow, clear, absorption range <350 nm, >700 nm), 29.32 % of initial amount.
As to `CC1=C(/C=C/C(C)=C/C=C/C(C)=C/C(=O)O)C(C)(C)CCC1` [vitamine A acid], the “rate of degradation of the active substance” value in data set [2] (with a yellow colourant having its absorption maximum in the range of 400 nm) was “substantially reduced”. Further, the stabilisation against light result in data set [2] (with light-stability or screening agents absorbing UV-A or UV-B rays) is recorded as “did not yield the desired results”.

The values above are taken from patent publication US20030102246A1, “Method for improving the stability of stored and/or used light-sensitive therapeutic systems or components thereof” (LTS Lohmann Therapie-Systeme AG, priority 1999, published 2003).
